In DBAASP one finds MIC data, which are given here for 7 compounds.

Some test systems named below: Acinetobacter baumannii; Enterobacter cloacae; Klebsiella aerogenes; Klebsiella oxytoca; Klebsiella pneumoniae; Proteus mirabilis; Pseudomonas aeruginosa; Salmonella enterica; Serratia marcescens; Staphylococcus aureus; Escherichia coli; Escherichia coli BL21; Escherichia coli MG1655.
What all share (assay): ≥ marks a high value that may be exact or a test limit, other limits are often not marked, values filed in µg/mL are converted to µM
Assay [1] deals with Escherichia coli ATCC 35218.
Assay [2] deals with Staphylococcus epidermidis.
The test system of assay [3] is Staphylococcus haemolyticus.
For assay [4], the system named is Staphylococcus saprophyticus.
Assay [5] deals with Escherichia coli ATCC 25922.
Assay [6] relates to Pseudomonas aeruginosa 885149.
Assay [7] deals with Pseudomonas aeruginosa 891.
In assay [8] the test system is Pseudomonas aeruginosa ATCC 27853.
In assay [9] the test system is Staphylococcus aureus ATCC 25923.
In assay [10] the test system is Staphylococcus aureus MIU-68A.
In assay [11] the test system is Escherichia coli DSM 1116.
In assay [12] the test system is Franconibacter helveticus DSM 18390.
Assay [13] deals with Staphylococcus xylosus DSM 20267.
Assay [14] concerns Staphylococcus aureus ATCC 29213.
The subject of assay [15] is Staphylococcus aureus FDA486.
For assay [16], the system named is Staphylococcus aureus FusA88700.
In assay [17] the test system is Candida albicans ATCC 10231.
For assay [18], the system named is Enterococcus faecalis ATCC 2912.
In assay [19] the test system is Pseudomonas aeruginosa ATCC 15442.
Assay [20] concerns Staphylococcus aureus ATCC 6538.
Assay [21] relates to Staphylococcus hominis ATCC 27844.
Assay [22] has as its system Aspergillus oryzae NBRC 100959.
Assay [23] has as its system Candida viswanathii NBRC 10321.
The subject of assay [24] is Escherichia coli NBRC 3972.
For assay [25], the system named is Micrococcus luteus NBRC 3333.
Assay [26] concerns Staphylococcus epidermidis NBRC 12993.
Assay [27] relates to Candida albicans NCTC 1467.
The test system of assay [28] is Enterococcus faecalis NCTC 12697.
Assay [29] concerns Escherichia coli NCTC 10418.
Assay [30] concerns Klebsiella pneumoniae ATCC 43816.
Assay [31] has as its system Staphylococcus aureus NCTC 10788.
The subject of assay [32] is Staphylococcus aureus NCTC 12493.

Structures are written as SMILES. Values after ≈ are worked out from the molar mass of the structure shown. Values joined by “and” are separate entries in the source; they are usually repeats but may differ in a detail not shown here. Identical values can stand only once.

A word on the MIC: it is the lowest concentration found to suppress growth. Higher therefore signals a less susceptible organism. In the case of `CC[C@H](C)[C@H](NC(=O)[C@H](Cc1ccc(O)cc1)NC(=O)[C@H](Cc1ccc(O)cc1)NC(=O)[C@H](CO)NC(=O)CNC(=O)CNC(=O)[C@H](CC(N)=O)NC(=O)[C@H](CCCN=C(N)N)NC(=O)[C@H](CC(C)C)NC(=O)[C@@H](N)Cc1ccccc1)C(=O)N[C@H](C(=O)N1CCC[C@H]1C(=O)N[C@@H](C)C(=O)N[C@@H](Cc1ccccc1)C(=O)N[C@@H](CCCN=C(N)N)C(=O)NCC(=O)N[C@@H](CCCCN)C(=O)NCC(=O)O)C(C)C` [FLRNGGSYYIVPAFRGKG], the MIC in the assay with Acinetobacter baumannii was 10 µM (≈ 20 µg/mL); in the assay with Enterobacter cloacae, 10 µM (≈ 20 µg/mL); in assay [1], 10 µM (≈ 20 µg/mL); against Klebsiella aerogenes, 10 µM (≈ 20 µg/mL); in the assay on Klebsiella oxytoca, 10 µM (≈ 20 µg/mL); in the assay with Klebsiella pneumoniae it was more than 10 µM. Also, the MIC was 10 µM (≈ 20 µg/mL) against Proteus mirabilis; more than 10 µM in the assay with Pseudomonas aeruginosa; 10 µM (≈ 20 µg/mL) against Salmonella enterica; 10 µM (≈ 20 µg/mL) with Serratia marcescens; more than 10 µM against Staphylococcus aureus; 10 µM (≈ 20 µg/mL) in [2]. The MIC in assay [3] and in assay [4] was 10 µM (≈ 20 µg/mL) each time.

For `CC[C@H](C)[C@H](NC(=O)[C@@H](N)CCCCN)C(=O)N[C@@H](CCCN=C(N)N)C(=O)N[C@H](C(=O)N[C@@H](CCCN=C(N)N)C(=O)N[C@@H](CC(C)C)C(=O)N[C@@H](CO)C(=O)N[C@@H](C)C(=O)O)C(C)C` [KIRVRLSA], the MIC in assay [5] is 17 µM (≈ 16 µg/mL); with Escherichia coli, 136 µM (≈ 128 µg/mL); against Klebsiella pneumoniae it was more than 136 µM; in assay [6], not below 34 µM; in assay [7], 17 µM (≈ 16 µg/mL); in [8] it was 17 µM (≈ 16 µg/mL). In addition, the values for the MIC in assay [9] and in [10] were 136 µM (≈ 128 µg/mL) and not below 136 µM, respectively.

Turning to `CC(C)C[C@H](NC(=O)[C@H](CCCCN)NC(=O)[C@H](CC(C)C)NC(=O)[C@H](CCCCN)NC(=O)[C@H](CC(C)C)NC(=O)[C@H](CCCCN)NC(=O)[C@H](CC(C)C)NC(=O)[C@H](CCCCN)NC(=O)[C@H](CC(C)C)NC(=O)[C@@H](N)CCCCN)C(N)=O` [KLKLKLKLKL], the MIC in [11] is 6.53 µM and 3.27 µM; in [12], 3.27 µM and 1.63 µM; in assay [13] it was 1.63 µM (≈ 2 µg/mL).

For `CC[C@H](C)[C@H](NC(=O)[C@H](CCCCN)NC(=O)[C@H](CCCN=C(N)N)NC(=O)[C@H](CCCCN)NC(=O)[C@H](CCCCN)NC(=O)[C@H](CCCCN)NC(=O)[C@H](Cc1c[nH]c2ccccc12)NC(=O)[C@H](CCCCN)NC(=O)[C@@H](NC(=O)[C@H](CC(C)C)NC(=O)[C@H](Cc1c[nH]c2ccccc12)NC(=O)[C@H](CCCN=C(N)N)NC(=O)[C@H](CC(=O)O)NC(=O)[C@H](CCSC)NC(C)=O)C(C)C)C(=O)N[C@@H](CCCN=C(N)N)C(=O)N[C@@H](CCCN=C(N)N)C(=O)N[C@@H](CCCN=C(N)N)C(=O)N[C@@H](CCCN=C(N)N)C(=O)N[C@@H](CCCN=C(N)N)C(=O)N[C@@H](CCCN=C(N)N)C(=O)N[C@@H](CCCN=C(N)N)C(=O)N[C@@H](CCCN=C(N)N)C(=O)N[C@@H](CCCN=C(N)N)C(=O)N[C@@H](CCCN=C(N)N)C(=O)N[C@@H](CCCN=C(N)N)C(N)=O` [MDRWLVKWKKKRKIRRRRRRRRRRR], the MIC was determined as 5 µM (≈ 18.4 µg/mL) with Escherichia coli BL21; 11 µM (≈ 40.4 µg/mL) in the assay with Escherichia coli MG1655; 3 µM (≈ 11 µg/mL) in assay [14]; 3 µM (≈ 11 µg/mL) in assay [15]; 3 µM (≈ 11 µg/mL) in [16]; 3 µM (≈ 11 µg/mL) against Staphylococcus aureus. Moreover, the MIC in assay [2] was 3 µM (≈ 11 µg/mL).

Regarding `CSCC[C@H](NC(=O)[C@H](CCCN=C(N)N)NC(=O)[C@H](CO)NC(=O)CNC(=O)[C@H](CCCCN)NC(=O)[C@@H](N)CCCN=C(N)N)C(=O)NCC(=O)N[C@@H](CCCCN)C(=O)N[C@@H](CCCCN)C(=O)N[C@@H](CS)C(=O)N[C@@H](CCC(=O)O)C(=O)N[C@@H](CS)C(=O)N1CCC[C@H]1C(=O)O` [RKGSRMGKKCECP], the MIC was 13.5 µM (≈ 20 µg/mL) in assay [17]; 8.3 µM (≈ 12.3 µg/mL) in assay [18]; 2.1 µM (≈ 3.11 µg/mL) in [5]; 2.1 µM (≈ 3.11 µg/mL) in assay [19]; more than 40 µM in assay [20]; 8.3 µM (≈ 12.3 µg/mL) in [21].

For the compound `CSCC[C@H](NC(=O)[C@H](CCCCN)NC(=O)[C@@H](NC(=O)[C@H](CCCN=C(N)N)NC(=O)[C@H](CCCCN)NC(=O)[C@H](Cc1c[nH]c2ccccc12)NC(=O)[C@H](Cc1ccccc1)NC(=O)[C@H](CCCN=C(N)N)NC(=O)[C@H](CCCCN)NC(=O)[C@H](CC(C)C)NC(=O)[C@H](CCCCN)NC(=O)[C@@H](N)CCCN=C(N)N)C(C)C)C(=O)O` [RKLKRFWKRVKM], the MIC is 14.9 µM (≈ 25 µg/mL) in assay [22]; 29.8 µM (≈ 50 µg/mL) in assay [23]; not below 239 µM in [24]; 29.8 µM (≈ 50 µg/mL) in [25]; 14.9 µM (≈ 25 µg/mL) in assay [26].

Regarding `CSCC[C@H](NC(=O)[C@H](CCC(=O)O)NC(=O)[C@H](CCCCN)NC(=O)[C@H](CC(C)C)NC(=O)[C@H](CCCCN)NC(=O)CNC(=O)[C@H](Cc1c[nH]c2ccccc12)NC(=O)[C@H](CC(C)C)NC(=O)[C@@H](N)CO)C(=O)N[C@@H](C)C(=O)N[C@@H](C)C(=O)N[C@@H](C)C(=O)N[C@@H](C)C(=O)NCC(=O)N[C@@H](CCCCN)C(=O)N[C@@H](C)C(=O)N[C@@H](C)C(=O)N[C@@H](CC(C)C)C(=O)N[C@@H](CC(N)=O)C(=O)N[C@@H](C)C(=O)N[C@H](C(=O)N[C@@H](CC(N)=O)C(=O)NCC(=O)N[C@@H](CC(C)C)C(=O)N[C@H](C(=O)N[C@@H](CC(N)=O)C(=O)N[C@@H](CCC(N)=O)C(N)=O)C(C)C)C(C)C` [SLWGKLKEMAAAAGKAALNAVNGLVNQ], the MIC was not below 64 µM in assay [27]; not below 32 µM in [28]; 8 µM (≈ 21.8 µg/mL) in [29]; not below 32 µM in assay [30]; 64 µM (≈ 174 µg/mL) in assay [8]; 8 µM (≈ 21.8 µg/mL) in assay [31]. The compound further had an MIC in [32] not below 32 µM.
